Results published in ChEMBL document CHEMBL1201862, “PubChem BioAssay data set” (2004).
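Interpolation was linear, between the two tested concentrations surrounding the appropriate level; five concentrations were tested over 48 hours in 96-well plates. GI50 is the concentration that inhibits growth by half.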 The source made the active and inactive calls. No stated cut-off is given here; in the data, active = GI50 up to about 1.1 µM and inactive = higher.

Legend:
Test in all cases: DTP human tumour cell line panel, 48 h
786-0 = test system: 786-0
A498 = test system: A498
A549 = test system: A549
ACHN = test system: ACHN
BT-549 = test system: BT-549
CAKI-1 = test system: CAKI-1
CCRF-CEM = test system: CCRF-CEM
COLO 205 = test system: COLO 205
DU-145 = test system: DU-145
EKVX = test system: EKVX
HCC 2998 = test system: HCC 2998
HCT-116 = test system: HCT-116
HCT-15 = test system: HCT-15
HL-60 = test system: HL-60
HOP-62 = test system: HOP-62
HOP-92 = test system: HOP-92
HT-29 = test system: HT-29
Hs-578T = test system: Hs-578T
IGROV-1 = test system: IGROV-1
K562 = test system: K562
KM12 = test system: KM12
LOX IMVI = test system: LOX IMVI
M14 = test system: M14
MDA-MB-231 = test system: MDA-MB-231
MDA-MB-435 = test system: MDA-MB-435
MDA-N = test system: MDA-N
MOLT-4 = test system: MOLT-4
Malme-3M = test system: Malme-3M
NCI-H226 = test system: NCI-H226
NCI-H23 = test system: NCI-H23
NCI-H460 = test system: NCI-H460
NCI-H522 = test system: NCI-H522
NCI/ADR-RES = test system: NCI/ADR-RES
OVCAR-3 = test system: OVCAR-3
OVCAR-5 = test system: OVCAR-5
OVCAR-8 = test system: OVCAR-8
PC-3 = test system: PC-3
RPMI-8226 = test system: RPMI-8226
RXF 393 = test system: RXF 393
SF-268 = test system: SF-268
SF-295 = test system: SF-295
SF-539 = test system: SF-539
SK-MEL-28 = test system: SK-MEL-28
SK-MEL-5 = test system: SK-MEL-5
SK-OV-3 = test system: SK-OV-3
SN12C = test system: SN12C
SNB-19 = test system: SNB-19
SNB-75 = test system: SNB-75
SR = test system: SR
SW-620 = test system: SW-620
T47D = test system: T47D
TK-10 = test system: TK-10
U-251 = test system: U-251
UACC-257 = test system: UACC-257
UACC-62 = test system: UACC-62
UO-31 = test system: UO-31
MCF7 = test system: MCF7
OVCAR-4 = test system: OVCAR-4
SK-MEL-2 = test system: SK-MEL-2

CCOC(=O)/C(C#N)=C/c1coc2cc(C)cc(C)c2c1=O
GI50 (786-0): > 100 µM (inactive)
GI50 (A498): > 100 µM (inactive)
GI50 (A549): > 100 µM (inactive)
GI50 (ACHN): > 100 µM (inactive)
GI50 (BT-549): > 100 µM (inactive)
GI50 (CAKI-1): > 100 µM (inactive)
GI50 (CCRF-CEM): > 100 µM (inactive)
GI50 (COLO 205): > 100 µM (inactive)
GI50 (DU-145): > 100 µM (inactive)
GI50 (EKVX): > 100 µM (inactive)
GI50 (HCC 2998): > 100 µM (inactive)
GI50 (HCT-116): > 100 µM (inactive)
GI50 (HCT-15): > 100 µM
GI50 (HL-60): > 100 µM (inactive)
GI50 (HOP-62): > 100 µM (inactive)
GI50 (HOP-92): 95.1 µM (inactive)
GI50 (HT-29): > 100 µM (inactive)
GI50 (Hs-578T): > 100 µM (inactive)
GI50 (IGROV-1): > 100 µM (inactive)
GI50 (K562): > 100 µM (inactive)
GI50 (KM12): > 100 µM (inactive)
GI50 (LOX IMVI): > 100 µM (inactive)
GI50 (M14): > 100 µM (inactive)
GI50 (MDA-MB-231): > 100 µM (inactive)
GI50 (MDA-MB-435): > 100 µM (inactive)
GI50 (MDA-N): > 100 µM (inactive)
GI50 (MOLT-4): > 100 µM (inactive)
GI50 (Malme-3M): 45.3 µM (inactive)
GI50 (NCI-H226): > 100 µM (inactive)
GI50 (NCI-H23): > 100 µM (inactive)
GI50 (NCI-H460): > 100 µM (inactive)
GI50 (NCI-H522): > 100 µM (inactive)
GI50 (NCI/ADR-RES): > 100 µM (inactive)
GI50 (OVCAR-3): 64.9 µM (inactive)
GI50 (OVCAR-5): > 100 µM (inactive)
GI50 (OVCAR-8): > 100 µM (inactive)
GI50 (PC-3): > 100 µM (inactive)
GI50 (RPMI-8226): > 100 µM (inactive)
GI50 (RXF 393): > 100 µM (inactive)
GI50 (SF-268): 66.4 µM (inactive)
GI50 (SF-295): 91.6 µM (inactive)
GI50 (SF-539): > 100 µM (inactive)
GI50 (SK-MEL-28): > 100 µM (inactive)
GI50 (SK-MEL-5): > 100 µM (inactive)
GI50 (SK-OV-3): > 100 µM (inactive)
GI50 (SN12C): > 100 µM (inactive)
GI50 (SNB-19): > 100 µM (inactive)
GI50 (SNB-75): > 100 µM (inactive)
GI50 (SR): > 100 µM (inactive)
GI50 (SW-620): > 100 µM (inactive)
GI50 (T47D): > 100 µM (inactive)
GI50 (TK-10): > 100 µM (inactive)
GI50 (U-251): > 100 µM (inactive)
GI50 (UACC-257): > 100 µM (inactive)
GI50 (UACC-62): > 100 µM (inactive)
GI50 (UO-31): 59 µM (inactive)

COC(=O)c1ccc(/N=N/N(C)COc2ccc(C#N)cc2)cc1
GI50 (786-0): > 100 µM (inactive)
GI50 (A498): > 100 µM (inactive)
GI50 (A549): 70 µM (inactive)
GI50 (ACHN): 21.2 µM (inactive)
GI50 (BT-549): > 100 µM (inactive)
GI50 (CAKI-1): 69 µM (inactive)
GI50 (CCRF-CEM): 20.3 µM (inactive)
GI50 (COLO 205): 61.2 µM (inactive)
GI50 (DU-145): 40.4 µM (inactive)
GI50 (EKVX): > 100 µM (inactive)
GI50 (HCC 2998): 62.1 µM (inactive)
GI50 (HCT-116): 79.4 µM (inactive)
GI50 (HCT-15): 22.4 µM
GI50 (HL-60): 16.6 µM (inactive)
GI50 (HOP-62): > 100 µM (inactive)
GI50 (HOP-92): 34.4 µM (inactive)
GI50 (HT-29): > 100 µM (inactive)
GI50 (Hs-578T): 59.4 µM (inactive)
GI50 (IGROV-1): > 100 µM (inactive)
GI50 (K562): 35.2 µM (inactive)
GI50 (KM12): 70.8 µM (inactive)
GI50 (LOX IMVI): 56.1 µM (inactive)
GI50 (M14): > 100 µM (inactive)
GI50 (MCF7): > 100 µM (inactive)
GI50 (MDA-MB-231): > 100 µM (inactive)
GI50 (MDA-MB-435): 40.4 µM (inactive)
GI50 (MDA-N): > 100 µM (inactive)
GI50 (MOLT-4): 82.2 µM (inactive)
GI50 (Malme-3M): > 100 µM (inactive)
GI50 (NCI-H226): > 100 µM (inactive)
GI50 (NCI-H23): > 100 µM (inactive)
GI50 (NCI-H460): 18.2 µM (inactive)
GI50 (NCI-H522): > 100 µM (inactive)
GI50 (NCI/ADR-RES): 67 µM (inactive)
GI50 (OVCAR-3): > 100 µM (inactive)
GI50 (OVCAR-4): > 100 µM (inactive)
GI50 (OVCAR-5): 61 µM (inactive)
GI50 (OVCAR-8): > 100 µM (inactive)
GI50 (PC-3): > 100 µM (inactive)
GI50 (RPMI-8226): > 100 µM (inactive)
GI50 (RXF 393): 95.5 µM (inactive)
GI50 (SF-268): > 100 µM (inactive)
GI50 (SF-295): 44.8 µM (inactive)
GI50 (SF-539): > 100 µM (inactive)
GI50 (SK-MEL-28): > 100 µM (inactive)
GI50 (SK-MEL-2): > 100 µM (inactive)
GI50 (SK-MEL-5): 45.1 µM (inactive)
GI50 (SK-OV-3): > 100 µM (inactive)
GI50 (SN12C): > 100 µM (inactive)
GI50 (SNB-19): > 100 µM (inactive)
GI50 (SNB-75): 49.2 µM (inactive)
GI50 (SW-620): 53.5 µM (inactive)
GI50 (T47D): 74 µM (inactive)
GI50 (TK-10): > 100 µM (inactive)
GI50 (U-251): 98.6 µM (inactive)
GI50 (UACC-257): > 100 µM (inactive)
GI50 (UO-31): 77.3 µM (inactive)
